What was measured:
Assay type in all cases: in vivo
[1] = system: Avena fatua (AVEFA); assay: Post-emergence herbicidal activity, glasshouse pot test; details: 1000 g/ha, post-emergence spray after 8 days cultivation, evaluated after 13 days, damage score 0-5
Procedure: (§1) Seeds of a variety of test species were sown in standard soil in pots: Triticum aestivium (TRZAW), Avena fatua (AVEFA), Alopecurus myosuroides (ALOMY), Echinochloa crus-galli (ECHCG), Lolium perenne (LOLPE), and Setaria faberi (SETFA). After 8 days cultivation (post-emergence) under controlled conditions in a glasshouse (at 24/16° C., day/night; 14 hours light; 65% humidity), the plants were sprayed with an aqueous spray solution derived from the formulation of the technical active ingredient in acetone/water (50:50) solution containing 0.5% Tween 20 (polyoxyethelyene sorbitan monolaurate, CAS RN 9005-64-5). The test plants were then grown in a glasshouse under controlled conditions (at 24/16° C., day/night; 14 hours light; 65% humidity) and watered twice daily. After 13 days, the test was evaluated (5=total damage to plant; 0=no damage to plant).

[2] = system: Setaria faberi (SETFA); assay: as above; set-up: key: 5=total damage to plant; 0=no damage to plant; details: 1000 g/ha, post-emergence spray after 8 days cultivation, evaluated after 13 days, damage score 0-5
Procedure: as §1

[3] = system: Triticum aestivium (TRZAW); assay: as above; set-up: key: 5=total damage to plant; 0=no damage to plant; details: 1000 g/ha, post-emergence spray after 8 days cultivation, evaluated after 13 days, damage score 0-5
Procedure: as §1

[4] = system: Echinochloa crus-galli (ECHCG); assay: as above; set-up: key: 5=total damage to plant; 0=no damage to plant; details: 1000 g/ha, post-emergence spray after 8 days cultivation, evaluated after 13 days, damage score 0-5
Procedure: as §1

[5] = system: Alopecurus myosuroides (ALOMY); assay: as above; set-up: key: 5=total damage to plant; 0=no damage to plant; details: 1000 g/ha, post-emergence spray after 8 days cultivation, evaluated after 13 days, damage score 0-5
Procedure: as §1

[6] = system: Lolium perenne (LOLPE); assay: as above; set-up: key: 5=total damage to plant; 0=no damage to plant; details: 1000 g/ha, post-emergence spray after 8 days cultivation, evaluated after 13 days, damage score 0-5
Procedure: as §1

[7] = system: Setaria faberi (SETFA); assay: Pre-emergence herbicidal activity, glasshouse pot test; set-up: key: 5=total damage to plant; 0=no damage to plant; details: 1000 g/ha, pre-emergence spray, evaluated after 13 days, damage score 0-5
Procedure: as §1, with “After” for “After 8 days”, “for one day (pre-emergence)” for “(post-emergence)”

[8] = system: Triticum aestivium (TRZAW); assay: as above; set-up: key: 5=total damage to plant; 0=no damage to plant; details: 1000 g/ha, pre-emergence spray, evaluated after 13 days, damage score 0-5
Procedure: as §1, with “After” for “After 8 days”, “for one day (pre-emergence)” for “(post-emergence)”

[9] = system: Echinochloa crus-galli (ECHCG); assay: as above; set-up: key: 5=total damage to plant; 0=no damage to plant; details: 1000 g/ha, pre-emergence spray, evaluated after 13 days, damage score 0-5
Procedure: as §1, with “After” for “After 8 days”, “for one day (pre-emergence)” for “(post-emergence)”

[10] = system: Alopecurus myosuroides (ALOMY); assay: as above; set-up: key: 5=total damage to plant; 0=no damage to plant; details: 1000 g/ha, pre-emergence spray, evaluated after 13 days, damage score 0-5
Procedure: as §1, with “After” for “After 8 days”, “for one day (pre-emergence)” for “(post-emergence)”

[11] = system: Lolium perenne (LOLPE); assay: as above; set-up: key: 5=total damage to plant; 0=no damage to plant; details: 1000 g/ha, pre-emergence spray, evaluated after 13 days, damage score 0-5
Procedure: as §1, with “After” for “After 8 days”, “for one day (pre-emergence)” for “(post-emergence)”

[12] = system: Avena fatua (AVEFA); assay: as above; set-up: key: 5=total damage to plant; 0=no damage to plant; details: 1000 g/ha, pre-emergence spray, evaluated after 13 days, damage score 0-5
Procedure: as §1, with “After” for “After 8 days”, “for one day (pre-emergence)” for “(post-emergence)”

Row | Compound | Control of weed species after post-emergence application, AVEFA [1] | Control of weed species after post-emergence application, SETFA [2] | Control of weed species after post-emergence application, TRAZW [3] | Control of weed species after post-emergence application, ECHCG [4] | Control of weed species after post-emergence application, ALOMY [5] | Control of weed species after post-emergence application, LOLPE [6] | Control of weed species after pre-emergence application, SETFA [7] | Control of weed species after pre-emergence application, TRAZW [8] | Control of weed species after pre-emergence application, ECHCG [9] | Control of weed species after pre-emergence application, ALOMY [10] | Control of weed species after pre-emergence application, LOLPE [11] | Control of weed species after pre-emergence application, AVEFA [12]
1 | CC(C)C(=O)Nc1cnc(-c2cncnc2)nc1C(F)(F)F [Compound F32] | 3 | 4 | 1 | 4 | 1 | 2 | 4 | 1 | 4 | 1 | 1 | 1
2 | CC(=O)Nc1cnc(-c2cncc(F)c2)nc1C(F)(F)F [Compound F11] | 3 | 5 | 1 | 4 | 1 | 2 | – | 0 | 4 | 0 | 1 | 2
3 | COCCC(=O)Nc1cnc(-c2cncc(F)c2)nc1C(F)(F)F [Compound F15] | 3 | 5 | 1 | 4 | 0 | 2 | – | 0 | 4 | 0 | 0 | 2
4 | O=C1CCCCN1c1cnc(-c2cncc(F)c2)nc1C(F)(F)F [Compound F29] | 3 | 5 | 0 | 4 | 0 | 1 | 3 | 1 | 2 | 1 | 1 | 0
5 | CC(C)C(=O)N(C)c1cnc(-c2cncc(F)c2)nc1C(F)(F)F [Compound F20, N-[2-(5-fluoro-3-pyridyl)-4-(trifluoromethyl)pyrimidin-5-yl]-N,2-dimethyl-propanamide] | 4 | 5 | 2 | 5 | 1 | 3 | 5 | 1 | 4 | 0 | 1 | 3
6 | CCCCC(=O)Nc1cnc(-c2cncc(F)c2)nc1C(F)(F)F [Compound F12] | 3 | 5 | 0 | 4 | 0 | 2 | – | 0 | 3 | 0 | 1 | 2
7 | CC(=O)Nc1cnc(-c2cncnc2)nc1C(F)(F)F [Compound F31] | 3 | 4 | 1 | 4 | 1 | 2 | 4 | 1 | 4 | 1 | 1 | 2
8 | Cc1nc(-c2cncnc2)ncc1NC(=O)C(C)C [Compound F1, 2-methyl-N-(4-methyl-2-pyrimidin-5-yl-pyrimidin-5-yl)propanamide] | 3 | – | 0 | 4 | 0 | 1 | 5 | 0 | 3 | 0 | 0 | 2
9 | CC(C)C(=O)Nc1cnc(-c2cncc(F)c2)nc1C(F)(F)F [Compound F13] | 3 | 5 | 0 | 5 | 0 | 2 | – | 0 | 4 | 0 | 1 | 2
10 | O=C(Nc1cnc(-c2cncc(F)c2)nc1C(F)(F)F)C1CC1 [Compound F14, N-[2-(5-fluoro-3-pyridyl)-4-(trifluoromethyl)-pyrimidin-5-yl]cyclopropanecarboxamide] | 3 | 5 | 1 | 5 | 0 | 4 | – | 0 | 4 | 0 | 2 | 2
11 | Cc1nc(-c2cncnc2)ncc1N(C(=O)C(C)C)C(=O)C(C)C [Compound F2, 2-methyl-N-(2-methylpropanoyl)-N-(4-methyl-2-pyrimidin-5-yl-pyrimidin-5-yl)propanamide] | 3 | – | 0 | 5 | 0 | 1 | 5 | 0 | 4 | 0 | 0 | 2

From patent US20200267980A1, “Herbicidally Active Pyridyl-/Pyrimidyl-Pyrimidine Derivatives” (Syngenta Participations AG, priority 2017, published 2020)
